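Interpolation was linear, between the two tested concentrations surrounding the appropriate level; five concentrations were tested over 48 hours in 96-well plates. Here, GI50 denotes the concentration required for 50% inhibition of growth.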 Calls of active or inactive are those of the source. Cut-off read from the data, not from the text of the source: active = GI50 up to about 1.1 µM and inactive = higher.
Key:
Experiment in all cases: DTP human tumour cell line panel, 48 h
NCI-H522 = tested on: NCI-H522
SK-MEL-28 = tested on: SK-MEL-28
ACHN = tested on: ACHN
MCF7 = tested on: MCF7
SF-268 = tested on: SF-268
MOLT-4 = tested on: MOLT-4
SK-OV-3 = tested on: SK-OV-3
MDA-MB-435 = tested on: MDA-MB-435
OVCAR-5 = tested on: OVCAR-5
BT-549 = tested on: BT-549
SK-MEL-2 = tested on: SK-MEL-2
CCRF-CEM = tested on: CCRF-CEM
K562 = tested on: K562
NCI-H226 = tested on: NCI-H226
TK-10 = tested on: TK-10
786-0 = tested on: 786-0
HOP-62 = tested on: HOP-62
IGROV-1 = tested on: IGROV-1

| SMILES | GI50 (NCI-H522) | GI50 (SK-MEL-28) | GI50 (ACHN) | GI50 (MCF7) | GI50 (SF-268) | GI50 (MOLT-4) | GI50 (SK-OV-3) | GI50 (MDA-MB-435) | GI50 (OVCAR-5) | GI50 (BT-549) | GI50 (SK-MEL-2) | GI50 (CCRF-CEM) | GI50 (K562) | GI50 (NCI-H226) | GI50 (TK-10) | GI50 (786-0) | GI50 (HOP-62) | GI50 (IGROV-1) |
| --- | --- | --- | --- | --- | --- | --- | --- | --- | --- | --- | --- | --- | --- | --- | --- | --- | --- | --- |
| Cc1ccc2c(C(=O)c3c(C)n(CCN4CCOCC4)c4ccccc34)cccc2c1 | 10.6 µM (inactive) | 1.36 µM (inactive) | 28.6 µM (inactive) | 3.53 µM (inactive) | 11.7 µM (inactive) | 3.88 µM (inactive) | 12.8 µM (inactive) | 2.29 µM (inactive) | 23.2 µM (inactive) | 14 µM (inactive) | 17.4 µM (inactive) | 1.79 µM (inactive) | 1.36 µM (inactive) | < 0.01 µM (active) | 23.7 µM (inactive) | 13.8 µM (inactive) | 27.3 µM (inactive) | 19.3 µM (inactive) |
| Cc1ccc(C(=O)OCC(C)C)cc1/N=N/N(C)C | 35.2 µM (inactive) | > 71 µM (inactive) | 54.8 µM (inactive) | 30.9 µM (inactive) | 42.9 µM (inactive) | 59.7 µM (inactive) | > 100 µM (inactive) | 95.9 µM (inactive) | > 100 µM (inactive) | 79.6 µM (inactive) | > 100 µM (inactive) | > 100 µM (inactive) | > 100 µM (inactive) | > 100 µM (inactive) | > 100 µM (inactive) | > 81.5 µM (inactive) | 67.8 µM (inactive) | > 100 µM (inactive) |
| CC(=O)/C(=C\NC(=S)Nc1ccc(S(N)(=O)=O)cc1)C(=O)Nc1ccccc1C | 41.7 µM (inactive) |  | 52.5 µM (inactive) | 40.7 µM (inactive) | 99.8 µM (inactive) | 28.5 µM (inactive) | 34.2 µM (inactive) | 32.3 µM (inactive) | 99.3 µM (inactive) | 33.9 µM (inactive) | 51.9 µM (inactive) | 16 µM (inactive) | 32.4 µM (inactive) | 60.3 µM (inactive) | 88.7 µM (inactive) | 41.9 µM (inactive) | 95.3 µM (inactive) | 55.3 µM (inactive) |
| CCOC1NC(/N=C/c2ccc(OC)cc2)=C(C#N)C1C#N (stereo unspecified) | 19.3 µM (inactive) | > 100 µM (inactive) | > 100 µM (inactive) | > 100 µM (inactive) | 97.5 µM (inactive) | 92 µM (inactive) | 80.4 µM (inactive) | 40.6 µM (inactive) | 87.5 µM (inactive) | 19.9 µM (inactive) | 29.9 µM (inactive) | 26.7 µM (inactive) | 31 µM (inactive) | > 100 µM (inactive) | > 100 µM (inactive) | > 100 µM (inactive) | > 100 µM (inactive) | > 100 µM (inactive) |
